The source made the active and inactive calls.
Assays:
[1] = HIV-1 Vif–A3G interaction blockers – biochemical, TR-FRET, GST-Vif 1-94, biotin-A3G peptide, dose response retest, primary screen (AID 1117319); type: functional;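 further: TR-FRET signal of purified GST-Vif binding a biotinylated A3G peptide; inhibitors lower the FRET signal by blocking Vif and A3G binding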
Albumin = Albumin (Bos taurus, UniProt P02769); experiment: Counterscreen for inhibitors of T-cell receptor (TCR)-CD3 interaction: Fluorescence-based biochemical high throughput dose response assay to identify inhibitors of T-cell receptor (TCR)-CD3 interaction using a TAMRA-labeled BSA probe.; type: functional
Chain of Albumin (P02769 whole entry): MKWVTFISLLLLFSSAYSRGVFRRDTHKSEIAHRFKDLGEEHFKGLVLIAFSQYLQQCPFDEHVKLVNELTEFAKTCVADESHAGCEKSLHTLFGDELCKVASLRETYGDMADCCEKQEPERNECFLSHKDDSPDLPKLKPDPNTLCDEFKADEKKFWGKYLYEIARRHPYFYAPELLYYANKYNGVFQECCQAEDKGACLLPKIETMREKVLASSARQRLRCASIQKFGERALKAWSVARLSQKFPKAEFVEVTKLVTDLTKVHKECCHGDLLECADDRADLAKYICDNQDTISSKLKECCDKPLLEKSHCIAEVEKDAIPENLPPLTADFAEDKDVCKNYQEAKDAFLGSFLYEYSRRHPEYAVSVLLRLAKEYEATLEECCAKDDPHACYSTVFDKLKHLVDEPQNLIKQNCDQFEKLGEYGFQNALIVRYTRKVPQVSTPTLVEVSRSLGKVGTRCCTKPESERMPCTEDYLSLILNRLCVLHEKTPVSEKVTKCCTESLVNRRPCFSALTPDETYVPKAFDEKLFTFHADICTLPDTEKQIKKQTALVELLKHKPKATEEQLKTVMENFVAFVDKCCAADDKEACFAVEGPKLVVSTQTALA

Protein skinhead-1 = target: T1, Protein skinhead-1 (Caenorhabditis elegans, UniProt P34707); type: functional
T1 sequence (P34707 whole entry): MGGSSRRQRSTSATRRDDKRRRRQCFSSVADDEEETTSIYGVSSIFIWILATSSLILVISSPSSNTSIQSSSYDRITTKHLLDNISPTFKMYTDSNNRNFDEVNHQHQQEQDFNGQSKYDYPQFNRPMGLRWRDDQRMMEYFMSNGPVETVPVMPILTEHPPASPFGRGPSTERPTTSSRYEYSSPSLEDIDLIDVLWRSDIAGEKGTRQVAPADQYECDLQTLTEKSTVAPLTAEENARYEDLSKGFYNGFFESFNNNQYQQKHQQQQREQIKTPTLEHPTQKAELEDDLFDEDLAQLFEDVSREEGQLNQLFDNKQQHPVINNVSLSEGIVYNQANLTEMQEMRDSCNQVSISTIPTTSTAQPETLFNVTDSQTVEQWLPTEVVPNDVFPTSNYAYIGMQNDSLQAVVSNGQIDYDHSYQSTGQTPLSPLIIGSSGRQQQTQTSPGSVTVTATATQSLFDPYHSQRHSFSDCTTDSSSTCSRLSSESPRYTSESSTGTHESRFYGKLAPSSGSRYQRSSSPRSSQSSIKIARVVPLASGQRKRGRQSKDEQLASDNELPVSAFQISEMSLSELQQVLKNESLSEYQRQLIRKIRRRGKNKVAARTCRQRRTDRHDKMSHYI

[2] = target: T2, Oxysterols receptor LXR-beta (Homo sapiens, UniProt P55055); type: functional, cell-based;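 further: agonist activity at LXR measured by a cell-based luminescence readout across a dose range, run as a counterscreen for daf-12 agonists; HEK293 cells with Gal4-LXR fusion and GAL4-driven luciferase reporter; potency for activation of Gal4-LXR reporter so compounds are agonists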
T2 sequence (P55055 whole entry): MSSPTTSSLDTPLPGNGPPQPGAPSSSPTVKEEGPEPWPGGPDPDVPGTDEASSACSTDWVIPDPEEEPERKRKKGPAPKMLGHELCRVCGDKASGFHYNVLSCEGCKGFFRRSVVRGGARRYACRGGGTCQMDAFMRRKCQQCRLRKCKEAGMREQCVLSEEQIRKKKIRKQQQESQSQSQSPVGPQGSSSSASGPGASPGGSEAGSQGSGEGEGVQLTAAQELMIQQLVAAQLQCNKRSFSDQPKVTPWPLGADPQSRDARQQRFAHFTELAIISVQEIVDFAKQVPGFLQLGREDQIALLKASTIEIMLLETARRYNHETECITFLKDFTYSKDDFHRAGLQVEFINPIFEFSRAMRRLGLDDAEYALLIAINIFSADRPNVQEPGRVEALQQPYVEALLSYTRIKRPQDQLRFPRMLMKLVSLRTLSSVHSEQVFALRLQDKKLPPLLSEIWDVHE

HEK293 = experiment: EBV LMP1 TES2 canonical NF-kB signalling blockers – cell-based, HEK293, luciferase, cherry-pick, dose response (AID 588343); type: functional; settings: Homo sapiens
[3] = viability loss in THP-1 monocytes – THP-1 cells, cytotoxicity control for Vif-APOBEC3G degradation inhibitor project, dose response (AID 1117359); type: functional; settings: THP-1
Vero = experiment: cells; type: functional; settings: Chlorocebus sabaeus
[4] = target: T3, COUP transcription factor 2 (Homo sapiens, UniProt P24468); experiment: Luminescence-based cell-based high throughput dose response assay to identify inhibitors of COUP-TFII (NR2F2).; type: functional;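 further: HEK293 cells transiently cotransfected with COUP-TFII expression vector and reporter; luciferase reporter luminescence driven by COUP-TFII from the pX2-168 reporter plasmid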
T3 sequence (P24468 whole entry): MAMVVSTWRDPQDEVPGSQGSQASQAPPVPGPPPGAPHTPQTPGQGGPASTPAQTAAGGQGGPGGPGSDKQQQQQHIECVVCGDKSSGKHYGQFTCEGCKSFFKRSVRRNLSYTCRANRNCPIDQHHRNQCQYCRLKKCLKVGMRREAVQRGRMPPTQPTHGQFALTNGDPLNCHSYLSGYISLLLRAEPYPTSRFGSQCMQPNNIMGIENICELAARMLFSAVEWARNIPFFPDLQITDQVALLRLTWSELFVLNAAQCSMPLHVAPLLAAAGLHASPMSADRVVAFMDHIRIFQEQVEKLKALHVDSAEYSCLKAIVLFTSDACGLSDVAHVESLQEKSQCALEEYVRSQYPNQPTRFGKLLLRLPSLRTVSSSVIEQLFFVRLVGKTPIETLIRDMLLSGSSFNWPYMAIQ

[5] = activation of miR-122 Renilla sensor silencing – cell-based, Huh7 psiCHECK-miR122, Renilla luciferase, cherry-picked, dose response (AID 651956); type: functional;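 further: huh7 hepatoma cells stably carrying a psiCHECK-2 miR-122 sensor plasmid; renilla luciferase signal reporting endogenous miR-122 activity after 48 h compound exposure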
[6] = OVCAR8 cell viability loss – plate reader, dry powder samples, PAX8 project, dose response (AID 743197); type: functional, cell-based; settings: OVCAR-8
Paired box protein Pax-8 = Paired box protein Pax-8 (Homo sapiens, UniProt Q06710); experiment: PAX8 transcriptional activity inhibition in RMG-I – RMG-I cells, luciferase, cherry-pick, dose response (AID 687027); type: functional, cell-based;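 further: luciferase reporter driven by Pax8 target thyroperoxidase promoter measured by SteadyGlo luminescence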
Chain of Paired box protein Pax-8 (Q06710 whole entry): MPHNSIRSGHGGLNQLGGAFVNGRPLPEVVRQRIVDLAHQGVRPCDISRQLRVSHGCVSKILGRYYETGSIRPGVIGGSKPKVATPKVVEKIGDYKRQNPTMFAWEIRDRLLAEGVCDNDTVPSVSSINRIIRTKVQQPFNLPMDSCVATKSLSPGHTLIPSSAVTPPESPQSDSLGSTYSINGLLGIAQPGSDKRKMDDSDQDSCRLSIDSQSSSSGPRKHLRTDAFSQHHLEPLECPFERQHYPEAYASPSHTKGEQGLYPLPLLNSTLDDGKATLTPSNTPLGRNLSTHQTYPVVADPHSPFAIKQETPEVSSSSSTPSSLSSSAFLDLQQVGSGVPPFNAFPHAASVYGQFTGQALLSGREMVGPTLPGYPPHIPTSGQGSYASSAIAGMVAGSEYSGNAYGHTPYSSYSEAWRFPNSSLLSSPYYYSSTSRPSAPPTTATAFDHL

Streptococcus = experiment: GAS UMAA2166 growth inhibition – luminescence, BacTiterGlo, counter-screen for streptokinase expression inhibitor project, dose response (AID 1915); type: functional, organism-based;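 further: potency for reduction of bacterial viability or growth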
[7] = fluconazole-exposed Candida albicans growth modulators – fluorescence, retest, confirmation (AID 2467); type: functional, cell-based
Fatty acid synthase [8] = target: T4, Fatty acid synthase (Homo sapiens, UniProt P49327); experiment: inhibition of human FAS-TE enzyme activity – biochemical, endpoint fluorescence intensity, uHTS hits, dose response (AID 624327); type: functional;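 further: fluorescence from hydrolysis of an O-methyl fluorescein acyl ester substrate by the enzyme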
T4 sequence (P49327 whole entry): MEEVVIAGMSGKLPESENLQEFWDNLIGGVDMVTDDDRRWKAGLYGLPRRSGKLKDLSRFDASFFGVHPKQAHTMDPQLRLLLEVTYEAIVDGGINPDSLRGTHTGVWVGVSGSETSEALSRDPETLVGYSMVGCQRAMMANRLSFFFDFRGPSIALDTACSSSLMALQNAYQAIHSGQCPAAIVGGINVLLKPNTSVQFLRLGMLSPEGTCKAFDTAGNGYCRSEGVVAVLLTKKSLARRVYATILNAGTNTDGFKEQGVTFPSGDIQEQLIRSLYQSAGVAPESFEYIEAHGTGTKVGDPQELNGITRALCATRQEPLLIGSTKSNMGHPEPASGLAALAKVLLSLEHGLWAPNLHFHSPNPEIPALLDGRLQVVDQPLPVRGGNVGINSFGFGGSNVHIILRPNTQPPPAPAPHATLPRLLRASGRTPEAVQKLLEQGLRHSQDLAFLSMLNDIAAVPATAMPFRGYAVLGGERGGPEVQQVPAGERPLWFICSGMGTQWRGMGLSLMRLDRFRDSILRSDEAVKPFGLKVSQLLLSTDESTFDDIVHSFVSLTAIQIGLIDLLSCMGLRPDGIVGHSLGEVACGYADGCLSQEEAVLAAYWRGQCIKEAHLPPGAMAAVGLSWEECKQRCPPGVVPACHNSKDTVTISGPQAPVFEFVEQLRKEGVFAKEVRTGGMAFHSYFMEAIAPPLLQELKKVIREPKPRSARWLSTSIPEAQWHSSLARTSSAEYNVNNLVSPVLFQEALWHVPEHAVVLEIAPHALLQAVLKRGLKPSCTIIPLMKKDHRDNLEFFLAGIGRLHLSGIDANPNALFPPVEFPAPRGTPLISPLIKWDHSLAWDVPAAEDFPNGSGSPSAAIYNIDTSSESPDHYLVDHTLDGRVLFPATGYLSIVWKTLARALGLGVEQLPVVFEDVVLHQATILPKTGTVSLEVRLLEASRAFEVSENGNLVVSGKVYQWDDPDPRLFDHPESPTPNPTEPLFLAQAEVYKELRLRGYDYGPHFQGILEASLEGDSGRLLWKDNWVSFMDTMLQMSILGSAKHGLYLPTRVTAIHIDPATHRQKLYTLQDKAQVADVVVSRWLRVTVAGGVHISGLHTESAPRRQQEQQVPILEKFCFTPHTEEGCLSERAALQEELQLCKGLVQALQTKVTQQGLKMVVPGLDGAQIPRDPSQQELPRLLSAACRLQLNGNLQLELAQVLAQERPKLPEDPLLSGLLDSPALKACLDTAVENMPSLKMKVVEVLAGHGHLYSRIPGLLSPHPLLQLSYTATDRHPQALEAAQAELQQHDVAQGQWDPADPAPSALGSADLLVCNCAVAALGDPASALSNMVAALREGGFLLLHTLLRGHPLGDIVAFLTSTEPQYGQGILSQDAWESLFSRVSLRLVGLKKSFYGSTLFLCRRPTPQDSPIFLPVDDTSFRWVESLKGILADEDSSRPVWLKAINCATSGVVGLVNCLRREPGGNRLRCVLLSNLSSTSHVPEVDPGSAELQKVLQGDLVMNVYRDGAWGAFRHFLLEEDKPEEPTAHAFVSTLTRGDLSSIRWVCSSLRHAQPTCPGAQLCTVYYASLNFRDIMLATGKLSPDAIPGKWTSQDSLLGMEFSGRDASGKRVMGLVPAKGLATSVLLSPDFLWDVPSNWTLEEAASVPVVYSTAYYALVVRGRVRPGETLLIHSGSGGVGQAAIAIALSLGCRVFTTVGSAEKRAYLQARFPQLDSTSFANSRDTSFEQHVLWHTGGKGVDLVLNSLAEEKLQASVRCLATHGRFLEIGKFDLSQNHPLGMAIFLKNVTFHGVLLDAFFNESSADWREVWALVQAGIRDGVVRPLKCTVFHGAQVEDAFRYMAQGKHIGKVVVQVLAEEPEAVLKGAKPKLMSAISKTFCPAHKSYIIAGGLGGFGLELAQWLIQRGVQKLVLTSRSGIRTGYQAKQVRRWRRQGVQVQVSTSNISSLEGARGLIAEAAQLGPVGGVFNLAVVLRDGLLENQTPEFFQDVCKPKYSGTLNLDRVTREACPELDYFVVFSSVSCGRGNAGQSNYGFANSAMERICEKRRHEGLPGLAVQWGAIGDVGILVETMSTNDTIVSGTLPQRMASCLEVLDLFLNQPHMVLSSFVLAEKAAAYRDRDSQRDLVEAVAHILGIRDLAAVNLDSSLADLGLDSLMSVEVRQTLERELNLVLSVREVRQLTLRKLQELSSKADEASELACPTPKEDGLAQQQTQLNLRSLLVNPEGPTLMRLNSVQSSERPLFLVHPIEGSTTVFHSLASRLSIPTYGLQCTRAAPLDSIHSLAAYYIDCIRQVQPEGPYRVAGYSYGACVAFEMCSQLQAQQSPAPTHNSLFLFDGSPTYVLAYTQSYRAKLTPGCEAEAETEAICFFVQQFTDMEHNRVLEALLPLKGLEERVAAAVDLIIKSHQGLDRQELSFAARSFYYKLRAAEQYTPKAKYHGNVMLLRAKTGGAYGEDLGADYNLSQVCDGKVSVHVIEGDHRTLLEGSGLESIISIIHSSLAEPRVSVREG

[9] = system: Streptococcus sp. 'group A'; experiment: Streptococcus pyogenes SK(-)GAS viability under kanamycin – luminescence, BacTiterGlo, confirmation, counter-screen for streptokinase expression inhibitor project, dose response (AID 1900); type: functional, organism-based
[10] = NIH-3T3 fibroblast cytotoxicity, dose response, cytotoxicity control, cell-based, fluorescence, Alamar Blue, secondary assay (AID 2327); type: functional;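 further: NIH-3T3 mouse fibroblasts cultured with fluconazole at 8 µg/mL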
Fatty acid synthase [11] = target: T4, Fatty acid synthase; experiment: inhibition of human FAS-TE enzyme activity – biochemical, kinetic fluorescence intensity, dose response (AID 624326); type: functional;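 further: rate of fluorescence rise from hydrolysis of a fluorogenic O-methyl fluorescein ester substrate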
[12] = target: T5, Tyrosyl-DNA phosphodiesterase 2 (Homo sapiens, UniProt O95551); experiment: potency against TDP2 phosphodiesterase activity – biochemical, epi absorbance, IC50, dose response (AID 743297)
T5 sequence (O95551 whole entry): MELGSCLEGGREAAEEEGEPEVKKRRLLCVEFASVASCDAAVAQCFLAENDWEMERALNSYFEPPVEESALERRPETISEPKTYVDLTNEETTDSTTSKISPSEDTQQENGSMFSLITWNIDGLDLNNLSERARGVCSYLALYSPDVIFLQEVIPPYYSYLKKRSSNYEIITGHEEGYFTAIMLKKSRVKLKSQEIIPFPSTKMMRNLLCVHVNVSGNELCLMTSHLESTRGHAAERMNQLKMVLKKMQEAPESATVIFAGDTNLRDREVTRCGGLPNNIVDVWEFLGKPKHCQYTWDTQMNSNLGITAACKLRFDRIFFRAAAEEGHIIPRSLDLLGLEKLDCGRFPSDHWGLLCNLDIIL

[13] = target: T6, Replicative DNA helicase DnaB (Mycobacterium tuberculosis, UniProt P9WMR3); experiment: DnaB intein splicing inhibitors, dose response, biochemical, cell-free fluorescence (AID 449749); type: functional
T6 sequence (P9WMR3 whole entry): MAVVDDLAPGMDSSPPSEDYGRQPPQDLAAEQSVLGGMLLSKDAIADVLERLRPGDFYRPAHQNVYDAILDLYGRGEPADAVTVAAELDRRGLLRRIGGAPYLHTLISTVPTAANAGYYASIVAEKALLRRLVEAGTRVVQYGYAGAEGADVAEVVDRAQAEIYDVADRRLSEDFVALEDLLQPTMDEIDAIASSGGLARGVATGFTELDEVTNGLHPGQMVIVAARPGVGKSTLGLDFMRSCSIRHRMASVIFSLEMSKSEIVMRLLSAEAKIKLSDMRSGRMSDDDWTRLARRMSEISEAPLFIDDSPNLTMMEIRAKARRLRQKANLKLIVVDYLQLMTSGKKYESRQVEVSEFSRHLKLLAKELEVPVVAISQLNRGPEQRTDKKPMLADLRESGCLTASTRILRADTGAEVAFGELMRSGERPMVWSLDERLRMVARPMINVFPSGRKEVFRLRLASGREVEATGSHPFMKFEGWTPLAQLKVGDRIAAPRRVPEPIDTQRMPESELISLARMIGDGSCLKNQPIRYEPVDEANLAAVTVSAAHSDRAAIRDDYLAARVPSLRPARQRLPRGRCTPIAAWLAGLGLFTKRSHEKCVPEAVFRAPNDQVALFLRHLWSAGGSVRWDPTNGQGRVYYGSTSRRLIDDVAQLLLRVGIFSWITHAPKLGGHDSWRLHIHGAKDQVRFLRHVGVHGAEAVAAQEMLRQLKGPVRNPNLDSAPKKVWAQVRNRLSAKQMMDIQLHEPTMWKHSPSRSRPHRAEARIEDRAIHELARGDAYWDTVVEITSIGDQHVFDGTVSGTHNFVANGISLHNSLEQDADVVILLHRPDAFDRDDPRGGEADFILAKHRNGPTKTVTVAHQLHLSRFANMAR

Protein RecA = target: T7, Protein RecA (Mycobacterium tuberculosis, UniProt P9WHJ3); experiment: Fluorescence Cell-Free Homogeneous Dose Retest to Identify Inhibitors of RecA-Intein Splicing Activity. [Related pubchem assays (depositor defined):AID2097, AID2223, AID489010, AID492950]; type: functional
T7 sequence (P9WHJ3 whole entry): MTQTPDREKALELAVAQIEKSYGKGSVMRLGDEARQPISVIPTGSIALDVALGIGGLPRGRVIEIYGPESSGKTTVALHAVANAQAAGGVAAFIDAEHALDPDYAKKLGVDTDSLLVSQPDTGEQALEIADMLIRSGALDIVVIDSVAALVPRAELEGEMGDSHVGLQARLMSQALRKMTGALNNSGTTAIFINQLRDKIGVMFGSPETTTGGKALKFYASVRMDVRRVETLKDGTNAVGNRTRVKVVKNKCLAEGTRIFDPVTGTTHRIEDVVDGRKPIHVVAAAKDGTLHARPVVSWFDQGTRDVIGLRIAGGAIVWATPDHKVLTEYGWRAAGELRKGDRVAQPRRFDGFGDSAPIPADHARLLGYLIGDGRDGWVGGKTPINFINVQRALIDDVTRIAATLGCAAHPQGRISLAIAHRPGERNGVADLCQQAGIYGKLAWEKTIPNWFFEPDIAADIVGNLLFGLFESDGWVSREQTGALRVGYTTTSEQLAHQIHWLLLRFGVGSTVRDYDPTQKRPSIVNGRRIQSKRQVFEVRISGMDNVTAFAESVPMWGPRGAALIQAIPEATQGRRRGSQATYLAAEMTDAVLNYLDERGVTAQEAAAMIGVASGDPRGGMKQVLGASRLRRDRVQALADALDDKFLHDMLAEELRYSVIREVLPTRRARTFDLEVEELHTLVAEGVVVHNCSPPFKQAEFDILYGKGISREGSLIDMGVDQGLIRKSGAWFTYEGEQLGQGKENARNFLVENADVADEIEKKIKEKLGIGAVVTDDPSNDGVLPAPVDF

[14] = P. falciparum Dd2 growth inhibitors, dose response, SYBR Green, cherry-picked samples (AID 1159567); type: functional, cell-based

## COc1ccccc1C(=O)Nc1ccc(-c2nnc(SCC(=O)O)n2C)cc1
[1]
  IC50: > 100 µM (active)

## CC(=O)c1cccc(NC(=O)C(OC(=O)c2cccc(S(=O)(=O)N(C)c3ccccc3)c2)c2ccccc2)c1 (stereo not drawn)
Albumin
  IC50: > 94.1 µM (inactive)

## FC(F)(F)c1cc(Cl)c2nc(-c3ccccc3)cn2c1
Protein skinhead-1
  IC50: > 100 µM (inactive)
[2]
  EC50: > 67.5 µM (inactive)

## CCc1cc(C(=O)Nc2ncccc2O)sc1C
HEK293
  AC50: 4.64 µM (active)
[2]
  EC50: > 67.5 µM (inactive)

## Cc1c(C=O)c2ccccc2n1Cc1ccc(F)cc1
[3]
  CC50: > 40 µM (active)

## COc1ccc(F)cc1S(=O)(=O)Nc1cc2c3c(c1)CC(=O)N3CCC2
[3]
  CC50: > 40 µM (active)

## Cc1n[nH]c(C(F)(F)F)c1N=NN1CCOCC1
Vero
  CC50: 6.78 µM (active)
[4]
  IC50: 15.5 µM (inactive)

## CCS(=O)(=O)N1CCC(C(=O)NCc2ccccn2)CC1
[1]
  IC50: > 100 µM (active)

## CC(C)CNc1ncnc2c1ncn2[C@H]1CN(Cc2ccc(-c3ccccc3)cc2)C[C@@H](CO)O1
[4]
  IC50: 9.84 µM (active)

## C[C@H]1CN([C@@H](C)CO)C(=O)c2cc(C#CC3CCCC3)cnc2O[C@H]1CN(C)C(=O)Cc1ccccn1
[5]
  AC50: 21.3 µM (active)

## COc1ccccc1NC(=O)COC(=O)c1c(NC(C)=O)sc(C)c1C
[3]
  CC50: > 40 µM (active)

## COc1ccc(CN(C)C[C@@H]2OCCCC[C@H](C)Oc3ccc(NC(=O)Nc4cccc5ccccc45)cc3C(=O)N([C@H](C)CO)C[C@H]2C)cc1
[6]
  AC50: > 70 µM (inactive)
Paired box protein Pax-8
  AC50: 69.6 µM (active)

## COc1ccccc1/C=N\N=C(\N)c1ccccn1
[2]
  EC50: > 67.6 µM (inactive)

## O=C(N/N=C/c1cc([N+](=O)[O-])ccc1O)/C(=C\c1cccs1)NC(=O)c1ccccc1
Streptococcus
  EC50: 2.16 µM (active)
[7]
  EC50: 3.32 µM (active)
Fatty acid synthase [8]
  IC50: 15.2 µM (active)
Albumin
  IC50: > 94.1 µM (inactive)
[9]
  EC50: 0.76 µM (active)
[10]
  EC50: > 160 µM (inactive)
Fatty acid synthase [11]
  IC50: 13.8 µM (active)

## Oc1ccc(/N=C/c2sc3ccccc3c2Cl)cc1
[12]
  IC50: > 128 µM (inactive)
[13]
  AC50: 137 µM (active)
Protein RecA
  EC50: > 380 µM (inactive)

## COc1ccc(C#Cc2ccc([C@H]3[C@@H](CO)N4CCCCN(C(=O)Nc5ccccc5F)C[C@@H]34)cc2)cc1
[14]
  AC50: 5.66 µM (active)

From ChEMBL document CHEMBL1201862, “PubChem BioAssay data set” (2004)
